Consider twelve compounds from PMC4840262 (Mutagenesis, 2015).

For series [1], the system named is CHO-K1 cells. As to conditions: Chinese hamster.
Series [2] relates to CHO-K1 cells. As to conditions: cited from earlier work.
Series [3] deals with human lymphocytes.
The conditions of series [4]: human PK studies, high therapeutic doses; cited from earlier work.
For series [5], the system named is human lymphocytes. As to conditions: male, human.
Series [6] has as its system rats. As to conditions: lifetime studies in the rat; cited from earlier work.
For series [7], the system named is mice. The settings on record: lifetime studies in the mouse; cited from earlier work.

Structures are written as SMILES. Structures can show the parent of a compound that is named as a salt. Where two headings read alike, the source gives them in different places. Marks after values point to notes of the source that are not given here.

Turning to `CCCCNC(=O)n1c(NC(=O)OC)nc2ccccc21` [Benomyl, benomyl], in series [1], the BMD10 was 0.450 µg/mL and the BMDL10 was 0.348 µg/mL. Also, in series [2], the “Td (threshold dose)” value is 0.659 µg/mL and the “Td–L–CI (lower confidence Td)” value was 0.520 µg/mL.

Take `COC(=O)Nc1nc2ccccc2[nH]1` [Carbendazim, carbendazim]: in series [1], the BMD10 came out at 0.310 µg/mL and the BMDL10 was 0.235 µg/mL. In addition, in series [2], the “Td (threshold dose)” value was 0.346 µg/mL and the “Td–L–CI (lower confidence Td)” value was 0.268 µg/mL.

As to `COC(=O)Nc1nc2ccc(C(O)c3ccc(F)cc3)cc2[nH]1` (stereo not shown) [S-reduced flubendazole], the “Cytotoxicity (%)” value in series [3] was found to be 0.0%.

Turning to `CCCOc1ccc2nc(NC(=O)OC)[nH]c2c1` [Oxibendazole, oxibendazole], in series [1], the BMD10 is 0.015 µg/mL and the BMDL10 was 0.010 µg/mL. Moreover, in series [2], the “Td (threshold dose)” value was 0.032 µg/mL and the “Td–L–CI (lower confidence Td)” value was 0.032 µg/mL.

As to `COC(=O)Nc1nc2ccc(C(=O)c3ccccc3)cc2[nH]1` [Mebendazole, mebendazole], in series [1], the BMD10 amounted to 0.024 µg/mL and the BMDL10 was found to be 0.018 µg/mL. In addition, the Oral bioavailability entry in series [4] is “around 2%”.

Consider `CC[C@]1(O)C[C@@H]2CN(CCc3c([nH]c4ccccc34)[C@@](C(=O)OC)(c3cc4c(cc3OC)N(C)[C@H]3[C@@](O)(C(=O)OC)[C@H](OC(C)=O)[C@]5(CC)C=CCN6CC[C@]43[C@@H]65)C2)C1` [Vinblastine, vinblastine sulfate], for which the “Fold increases in MN over concurrent vehicle control” value (from here on “Fold increases in MN”) in series [3] (0.12 μg/ml) was 56.6. Moreover, in series [3] (male, human), the “Frequency of micronucleated binucleate cells (%)” value is reported as 9.25* %.

As to `CCC[S+]([O-])c1ccc2[nH]c(NC(=O)OC)nc2c1` (stereo not shown) [Albendazole sulfoxide, albendazole sulfoxide], in series [5], the “%C+ micronuclei” value stood at 71% and the “%C− micronuclei” value came out at 29%. In series [1], the BMD10 is 1.100 µg/mL and the BMDL10 is 0.861 µg/mL. In series [2], the “Td (threshold dose)” value was 1.708 µg/mL and the “Td–L–CI (lower confidence Td)” value is 1.474 µg/mL. The “Lowest non-significant doses (micronuclei)” value in series [3] (male, human) was 3.0 µg per ml.

Consider `c1ccc2[nH]c(-c3cscn3)nc2c1` [thiabendazole], for which, in series [2], the “MNBN induction in CHO-K1 cells (in words)” value was “inactive”.

On to `CCCSc1ccc2nc(NC(=O)OC)[nH]c2c1` [Albendazole, albendazole], for which, in series [5], the “%C+ micronuclei” value is on record as 72% and the “%C− micronuclei” value stood at 28%. In series [1], this compound had a BMD10 of 0.037 µg/mL and a BMDL10 of 0.027 µg/mL. Besides, in series [2], the “Td (threshold dose)” value was 0.005 µg/mL and the “Td–L–CI (lower confidence Td)” value was 0.003 µg/mL. For the same compound, in series [6], the “Carcinogenicity (in words)” value is on record as “negative”. Further, the “Carcinogenicity (in words)” value in series [7] is reported as “negative”. For the same compound, in series [3] (male, human), the “Fold increases in MN” value amounted to 9.3 and the “Lowest non-significant doses (micronuclei)” value came to 0.04 µg per ml.

Regarding `O=P1(N(CCCl)CCCl)NCCCO1` (stereo not shown) [Cyclophosphamide, cyclophosphamide], in series [5], the “% micronuclei with a centromere” value was 16% and the “% micronuclei without a centromere” value came to 84%. Also, in series [3] (male, human), the “Fold increases in MN” value is listed as 5.6 and the “Mean MNBN cell frequency (%)” value was 1.40* %.

In the case of `CO[C@@]12[C@H](COC(N)=O)C3=C(C(=O)C(C)=C(N)C3=O)N1C[C@@H]1N[C@@H]12` [Mitomycin C, mitomycin C], the “Mean MNBN cell frequency (%)” value in series [3] (male, human) is 8.70* %.

In the case of `COC(=O)Nc1nc2ccc([C@H](O)c3ccc(F)cc3)cc2[nH]1` [R-reduced flubendazole], in series [3], the “Cytotoxicity (%)” value worked out at 3.0% and the “Lowest dose, significant increase in micronuclei seen” value was found to be 1.1 µg per ml.
